pEC50, pIC50: −log10 of the molar value.
What was measured:
[1] = target: T1, dN-SARM1 protein (Homo sapiens, UniProt Q6SZW1); test: In vitro biochemical assay for inhibiting SARM1 enzymatic activity (% inhibition rate), PC6 fluorescence method; conditions: 20 μM compound; 50 μM NAD, 50 μM PC6, 50 μM NMN activator
T1 construct: the N-terminal mitochondrial localization signal peptide of SARM1 was removed
T1 sequence (Q6SZW1 28-724): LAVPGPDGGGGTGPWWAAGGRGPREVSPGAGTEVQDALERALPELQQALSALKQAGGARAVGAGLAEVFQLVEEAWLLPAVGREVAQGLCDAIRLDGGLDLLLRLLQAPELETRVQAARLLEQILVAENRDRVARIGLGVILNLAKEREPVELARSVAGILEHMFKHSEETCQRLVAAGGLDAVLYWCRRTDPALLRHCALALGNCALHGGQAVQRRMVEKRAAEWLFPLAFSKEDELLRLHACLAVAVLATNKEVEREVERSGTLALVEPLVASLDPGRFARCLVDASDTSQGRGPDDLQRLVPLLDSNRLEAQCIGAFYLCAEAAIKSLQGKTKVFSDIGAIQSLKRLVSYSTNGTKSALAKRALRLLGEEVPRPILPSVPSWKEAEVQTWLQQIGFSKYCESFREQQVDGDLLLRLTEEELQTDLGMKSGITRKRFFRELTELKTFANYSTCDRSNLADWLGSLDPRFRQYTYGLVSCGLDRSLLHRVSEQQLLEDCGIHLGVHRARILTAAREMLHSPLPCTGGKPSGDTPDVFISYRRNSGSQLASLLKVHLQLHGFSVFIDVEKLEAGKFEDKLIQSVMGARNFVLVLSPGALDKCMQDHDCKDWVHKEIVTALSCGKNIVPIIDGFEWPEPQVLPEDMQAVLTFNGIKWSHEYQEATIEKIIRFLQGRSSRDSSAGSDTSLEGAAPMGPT
Method: The compounds were subjected to PC6 fluorescence method measurement [Chinese Patent 202010528147.3] using the dN-SARM1 protein obtained through “(4) Protein extraction” in “Expression and purification of SARM1 protein” in the above biological activity example 1.
First, 0.05 μg/ml dN-SARM1 and 20 μM compound were incubated in 50 mM Tris-HCl (pH 7.5) solution for 10 min, and then added with 50 μM NAD and 50 μM PC6 as substrate and 50 μM NMN as activator for 30 minutes of reaction at room temperature. The concentration of each component was the final concentration in the reaction system.
During the reaction, PC6 fluorescence spectrum dynamics were detected by a microplate reader, wherein the excitation wavelength and emission wavelength for detection were 390 nm and 520 nm, respectively. Finally, the reaction rate was used to express the activity of the protein. The higher the reaction rate, the stronger the activity of the protein and the lower the inhibitory efficiency of the compound.

[2] = target: T1, dN-SARM1 protein; test: In vitro biochemical assay for inhibiting SARM1 enzymatic activity (IC50), PC6 fluorescence method; conditions: 50 μM NAD, 50 μM PC6, 50 μM NMN activator
Procedure, shortened: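 dN-SARM1 (0.05 μg/ml, 50 mM Tris-HCl pH 7.5) preincubated 10 min at room temperature with compound in serial dilution from 200 μM. Reaction started with final 50 μM NAD, 50 μM PC6 substrate and 50 μM NMN activator, 30 min at room temperature. PC6 fluorescence (ex 390/em 520 nm) rate gives activity; IC50 derived.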

[3] = target: T2, SARM1 protein in iSARM1 (HEK293) cells (Homo sapiens, UniProt Q6SZW1); test: Inhibitory activity in inducible SARM1 overexpressing cell line, intracellular cADPR level; type: cell-based; conditions: activator CZ-48 100 μM, cADPR content
T2 construct: The full-length SARM1 was synthesized into the pUC57 plasmid by WZ Biosciences Inc., and PCR was performed using pUC57-SARM1 as a DNA template
T2 sequence (Q6SZW1 28-724): T1 sequence (Q6SZW1 28-724)
Procedure, shortened: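 Inducible SARM1-overexpressing HEK293 cells preincubated 1.5 h with inhibitor (50 μM final), then activated with 100 μM CZ-48 for 16 h. Intracellular cADPR extracted with perchloric acid, NAD+ removed by NADase, and quantified by cyclase-coupled resazurin cycling assay (Ex/Em 544/599, 30 min kinetics) against cADPR standards; inhibition rate and IC50 calculated.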

inhibition at 20 µM [1] [%] | pIC50 [2] | pEC50 [3] | SMILES
> 90 | 5.00 to 6.00 | 5.00 to 6.00 | COCCOCC(=O)Nc1ccc(-c2cnc3ccc(N(C)C(=O)OC(C)(C)C)cn23)cc1 [Compound 50]
> 90 | 5.00 to 6.00 | 5.00 to 6.00 | CNc1ccc2ncc(C(=O)Nc3ccccc3)n2c1 [Compound 105, 6-(methylamino)-N-phenylimidazo[1,2-a]pyridin-3-carboxamide]
> 90 | > 6.00 | 5.00 to 6.00 | COCCOCC(=O)Nc1cccc(-c2cnc3ccc(NC(=O)C4CC4)cn23)c1 [Compound 129, N-(3-(3-(2-(2-methoxyethoxy)acetamido)phenyl)imidazo[1,2-a]pyridin-6-yl)cyclopropanecarboxamide]
> 90 | > 6.00 | > 6.00 | CC(C)(C)OC(=O)Nc1ccc2ncc(-c3cccc(NC(=O)COCCOCC(=O)Nc4cccc(-c5cnc6ccc(NC(=O)OC(C)(C)C)cn56)c4)c3)n2c1 [Compound 122]
> 90 | 5.00 to 6.00 | > 6.00 | CN(C(=O)OC(C)(C)C)c1ccc2ncc(-c3cccc(NC(=O)C4CCOCC4)c3)n2c1 [Compound 49]

More lines, now with the values behind:

SMILES | inhibition at 20 µM [1] [%] | pIC50 [2] | pEC50 [3]
c1ccc(-c2cnc3ccc(N4CCOCC4)cn23)cc1 [Compound 34] | > 90 | 5.00 to 6.00 | 5.00 to 6.00
c1cn2cc(N3CCOCC3)ccc2n1 [Compound 32] | > 90 | 5.00 to 6.00 | 5.00 to 6.00
CN(C(=O)OC(C)(C)C)c1ccc2ncc(-c3ccc(N)cc3)n2c1 [Compound 40] | > 90 | 5.00 to 6.00 | 5.00 to 6.00
CC(C)(C)OC(=O)Nc1ccc2ncc(I)n2c1 [Compound 44] | 50 to 89 | 5.00 to 6.00 | 5.00 to 6.00

— patent publication US20240368168A1, “SARM1 ENZYME ACTIVITY INHIBITOR AND APPLICATION THEREOF” (ARTIVILA BIOPHARMA, priority 2021, published 2024)
